{
  "source": "paper PMC4301837",
  "about": "“Aldosterone synthase inhibition: cardiorenal protection in animal disease models and translation of hormonal effects to human subjects” (Journal of Translational Medicine, 2014)",
  "key": {"healthy male volunteers [1]": {"tested_on": "healthy male volunteers", "test": "Human pharmacodynamics, multiple-dose phase", "procedure": "Healthy male volunteers, 18–45 years of age and with a body mass index of 18–28 kg/m^2 were eligible for this study. Subjects had to be non-smokers with normal hepatic and renal function for inclusion. […] All subjects provided informed written consent before participating in any study procedures.\n(§1) The multiple-dose phase involved four cohorts, each of 18 subjects. […] Subjects were placed on a controlled sodium restricted diet from the day before dosing until 72 h post-dose and were housed at the study center for this period. Until Day 7, the diet was ~50–60 mEq Na^+/~50–60 mEq K^+. On the morning of Day 8, potassium in the diet was increased to ~100 mEq. Based on urinary electrolyte values obtained from placebo subjects on Day 7 and Day 14 respectively, the actual diet was ~95 ± 63 mEq Na^+/46 ± 12 mEq K^+ for the first week and ~86 ± 42 mEq Na^+/69 ± 25 mEq K^+ for the second week.\n(§2) Pharmacodynamic assessments included the measurement of aldosterone, plasma renin activity (PRA), cortisol and 11-deoxycortisol during both phases of the study. In addition, ACTH and 11-DOC were measured during the multiple-dose phase. During the single-dose phase, blood samples for pharmacodynamic assessments were collected pre-dose and at 1, 2, 4, 8, 12 and 24 h post-dose. During the multiple-dose phase, samples were collected pre-dose and at 1, 2, 4, 8 and 12 h post-dose on Days −1 (baseline), 1, 7, 8 and 14, as well as pre-dose on Days 2 and 9, and at 24, 48 and 72 h after the final dose (i.e., on Days 15, 16 and 17). In addition, subjects underwent a cortisol stimulation test on Days –2, 6 and 13; An ACTH analog was injected 2 h post-dose and blood samples were collected prior to, and at 30 and 60 min after, the ACTH injection. Aldosterone and PRA levels were measured by radioimmunoassay and cortisol and 11-deoxycortisol levels by LC-MS/MS (see Additional file 1).\n(§3) All subjects with evaluable pharmacodynamic measurements were included in the analysis, and data from the two study phases were analyzed separately. An analysis of covariance (ANCOVA) with treatment as factor and baseline value as covariate was performed to evaluate changes from baseline in pharmacodynamic parameters at each time point.\n(§4) Aldosterone levels were measured by radioimmunoasssay with 100 μl of EDTA plasma or 500 μl of urine using the DSL-8600 ACTIVE® Aldosterone Coated-Tube radioimmunoassay kit from Diagnostic Systems Laboratories, Inc. (LLOQ was 69 pmol/l [25.0 pg/ml] for plasma and 2 nmol/l [0.75 ng/ml] for urine).\nCortisol, 11-deoxycortisol and 11-deoxycorticosterone levels were measured by LC/MS/MS of 250 μL of EDTA plasma or 500 μL urine (LLOQ was 13.79 nmol/L [5.00 ng/mL] for cortisol and 2.89 nmol/L [1.00 ng/mL] for 11-deoxycortisol and 11-deoxycorticosterone in plasma and 2.76 nmol/L [1.00 ng/mL] for cortisol in urine). For plasma cortisol, based on 9 standards ranging from 5–300ng/ml (>70 replicates of each) run at the time of sample analysis, the coefficient of variation (CV) and were 2.14–5.32% and 97.6–104%, respectively. For urine cortisol, based on 7 standards ranging from 1–100ng/ml (22 replicates of each) run at the time of sample analysis, CV and accuracy were 1.55–4.22% and 97.0–101.6%, respectively. For plasma 11-deoxycortisol, based on 9 standards ranging from 1–300ng/ml (>50 replicates of each) run at the time of sample analysis, CV and accuracy were 3.69–8.22% and 91.33–108%, respectively."}, "[2]": {"tested_on": "patients with primary aldosteronism", "conditions": "14 patients, 0.5 mg and 1 mg twice daily, 4 weeks; cited from earlier work"}, "[3]": {"target": "aldosterone synthase (CYP11B2), rat adrenal homogenate (Rattus norvegicus, UniProt P30099)", "sequence (P30099 35-510)": "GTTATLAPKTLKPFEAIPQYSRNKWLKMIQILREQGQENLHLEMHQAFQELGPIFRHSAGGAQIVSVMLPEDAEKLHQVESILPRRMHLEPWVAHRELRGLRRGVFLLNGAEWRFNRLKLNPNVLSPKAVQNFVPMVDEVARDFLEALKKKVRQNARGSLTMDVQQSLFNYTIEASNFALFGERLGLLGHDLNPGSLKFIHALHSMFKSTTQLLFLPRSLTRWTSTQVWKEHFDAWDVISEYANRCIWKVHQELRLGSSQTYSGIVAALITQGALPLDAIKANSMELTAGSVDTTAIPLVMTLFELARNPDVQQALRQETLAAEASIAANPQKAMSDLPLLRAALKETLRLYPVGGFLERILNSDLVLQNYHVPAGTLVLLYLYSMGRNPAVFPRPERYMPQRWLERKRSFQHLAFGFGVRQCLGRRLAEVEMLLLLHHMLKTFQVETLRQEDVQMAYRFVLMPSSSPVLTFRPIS", "test": "biochemical", "procedure": "(§5) Rat adrenal homogenates were prepared from the adrenal glands of male Sprague-Dawley (S-D) rats as described previously [21]. Monkey CYB11B2 and CYB11B1 homogenates were prepared from the adrenal glands of female cynomolgous monkeys. Monkey adrenal gland tissue was minced and homogenized on ice in a glass tissue grinder in 1 mL of ice-cold homogenization buffer per 100 mg tissue (adding 2.7 mmol/L CaCl2 and one ethylenediaminetetraacetic acid (EDTA)-free protease inhibitor tablet per 50 mL buffer) [20]. The homogenized material was centrifuged at 450 g for 5 min at 4°C, and the supernatant brought to a final glycerol concentration of 5%, flash-frozen in liquid nitrogen, and stored at −80°C until analysis. Aldosterone, cortisol and corticosterone concentrations were quantified using 96-well plate assays (see Additional file 1).\n(§6) The rat and monkey assays were conducted similarly, using 11-DOC as substrate.\n(§7) Half-maximal inhibitory concentration (IC50) values were derived using a non-linear least-squares curve-fitting program (XLfit; ID Business Solutions Inc., Bridgewater, NJ, USA).\n(§8) Aldosterone concentration was measured using 96-well plates. […] The amount of aldosterone, cortisol or corticosterone was calculated by comparison with a standard curve."}, "[4]": {"tested_on": "dTG rats with pre-established cardiorenal disease", "test": "Survival study in older, enalapril-pre-treated dTG rats with established cardiorenal disease", "type": "in vivo, rat", "conditions": "older dTG rats", "procedure": "In order to study the effects of aldosterone inhibition on survival in older dTG rats with established cardiorenal disease, we modified the model by treating male dTG rats during their developmental stage (3–8 weeks of age) with the angiotensin-converting enzyme (ACE) inhibitor enalapril.\nIn experiments with older dTG rats (treated with enalapril for 5 weeks), urine collections and echocardiographic examinations were conducted as above but systolic arterial pressure was estimated in conscious rats by tail plethysmography (Model# 56-1, IITC Life Science Inc., Woodland Hills, CA, USA) using appropriate tail cuff sensors (B63), and restrainer (size 80), at a constant chamber temperature of 30°C.\nIn the survival studies, dTG rats were euthanized if they became moribund. Moribundity was defined as a decrease in body weight of ≥ 20% from “baseline” or two consecutive days of observable hematuria. The study endpoint was the age of the animal at death or at moribundity requiring euthanization."}, "[5]": {"tested_on": "Ang-II-stimulated aldosterone synthesis", "conditions": "rat, Ang II stimulation", "procedure": "Male S-D rats (~500 g) were purchased from Taconic Farms (Germantown, NY, USA) and acclimatized in the Novartis vivarium (12 h light/dark cycle; 72°F; 55% relative humidity) for at least 7 days before being used in experiments. Rats were provided normal chow (Harlan Teklad 8604) and water ad libitum except for a partial fast before and during an experiment.\nStudy protocols for the rat models of Ang-II- and ACTH-stimulated aldosterone synthesis followed a published protocol [21]. For the Ang-II-infusion model, an initial loading dose of 300 ng/kg angiotensin II (Ang II) was followed by 100 ng/kg/min intravenous (i.v.) infusion for 9 h. […] After 1 h of Ang II or ACTH infusion, a blood sample was collected for determining the post-Ang II or ACTH ‘baseline’ (i.e., secretagogue-elevated) plasma aldosterone and corticosterone concentrations. […] In both models, infusion continued for a further 8 h.\n(§9) Blood samples were centrifuged at 20,000g for 20 min at 4°C to separate out plasma, which was aliquoted and frozen at −70°C until required for analysis. Plasma aldosterone and cortisol concentrations from animal studies were measured using commercially available solid-phase ^125I radioimmunoassay kits (Coat-A-Count Aldosterone TKAL1; Coat-A-Count Cortisol TKCO1; Siemens Healthcare Diagnostic Products)."}, "healthy male volunteers [6]": {"tested_on": "healthy male volunteers", "test": "Human safety and tolerability", "type": "in vivo", "procedure": "All adverse events were recorded during the study period. In addition, vital signs and body weight were measured daily, while blood hematologic and chemistry profiles, urinalysis, physical condition and 12-lead electrocardiograms were monitored regularly throughout the study.\nAn analysis of variance (ANOVA) with treatment as the classification factor was performed on orthostatic changes (standing-supine) in pre-dose systolic blood pressure, diastolic blood pressure, and heart rate measurements for each of Days 1, 7, and 14 separately.\nAn ANCOVA with treatment as the classification factor and baseline as the covariate was performed on change from baseline (Day 1 pre-dose) to Day 7 and Day 14 for pre-dose supine and standing systolic blood pressure (SBP), diastolic blood pressure (DBP), and heart rate and for orthostatic changes (standing–supine)."}, "[7]": {"target": "aldosterone synthase (CYP11B2), monkey adrenal homogenate (Macaca fascicularis, UniProt A0A2K5UPL9)", "sequence (A0A2K5UPL9 1-503)": "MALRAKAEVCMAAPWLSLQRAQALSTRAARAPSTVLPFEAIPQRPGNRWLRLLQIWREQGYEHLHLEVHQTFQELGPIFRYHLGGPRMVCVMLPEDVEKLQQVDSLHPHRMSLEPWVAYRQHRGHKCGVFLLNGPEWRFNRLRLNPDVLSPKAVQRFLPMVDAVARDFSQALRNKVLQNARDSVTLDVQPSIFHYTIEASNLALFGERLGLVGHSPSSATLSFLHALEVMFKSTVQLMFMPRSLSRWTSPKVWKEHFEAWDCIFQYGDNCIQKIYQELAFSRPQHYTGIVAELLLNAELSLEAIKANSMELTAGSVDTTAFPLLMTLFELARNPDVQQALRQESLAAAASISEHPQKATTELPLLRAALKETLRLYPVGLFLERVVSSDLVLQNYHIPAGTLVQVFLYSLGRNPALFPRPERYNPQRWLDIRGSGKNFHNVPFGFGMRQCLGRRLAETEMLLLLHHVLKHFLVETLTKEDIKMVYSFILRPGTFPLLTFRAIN", "test": "biochemical", "procedure": "as §5, §6, §7, §8"}, "[8]": {"tested_on": "ACTH-stimulated aldosterone, cortisol and precursors", "test": "Human ACTH (cortisol) stimulation test, multiple-dose phase", "type": "in vivo", "procedure": "as §1, §2, §3, §4\nCortisol, 11-deoxycortisol and 11-deoxycorticosterone levels were measured by LC/MS/MS of 250 μL of EDTA plasma or 500 μL urine (LLOQ was 13.79 nmol/L [5.00 ng/mL] for cortisol and 2.89 nmol/L [1.00 ng/mL] for 11-deoxycortisol and 11-deoxycorticosterone in plasma and 2.76 nmol/L [1.00 ng/mL] for cortisol in urine). For plasma cortisol, based on 9 standards ranging from 5–300ng/ml (>70 replicates of each) run at the time of sample analysis, the coefficient of variation (CV) and were 2.14–5.32% and 97.6–104%, respectively. For urine cortisol, based on 7 standards ranging from 1–100ng/ml (22 replicates of each) run at the time of sample analysis, CV and accuracy were 1.55–4.22% and 97.0–101.6%, respectively. For plasma 11-deoxycortisol, based on 9 standards ranging from 1–300ng/ml (>50 replicates of each) run at the time of sample analysis, CV and accuracy were 3.69–8.22% and 91.33–108%, respectively. For 11-deoxycorticosterone, based on 8 standards ranging from 0.05–1 ng/ml (19–20 replicates of each) run during assay validation, CV of the plasma assay was 2.38–8.71% and bias was -2.4–4.0%."}, "[9]": {"tested_on": "ACTH-stimulated plasma aldosterone and cortisol", "source_text": "(§10) Male cynomolgus monkeys (Macaca fascicularis) were selected for their cooperation and ability to sit comfortably in chairs and were conditioned to remain in the chairs for extended periods before the studies began. On the day of the experiment, monkeys were removed from their home cages with a pole/collar device (Primate Products, Inc., Woodside, CA, USA), secured in their restraining chairs, and transported to the quiet study room. The monkeys remained in the chair for the duration of the experiment (up to 10 h), during which time an enrichment and feeding regimen was followed.\nSix monkeys (4.9–8.8 kg) were selected and were divided into two groups of three animals. Experiments were not initiated until after at least 2 weeks of recovery from the catheter/vascular access port (VAP) surgeries. Thirty minutes before the start of the experiment, a Huber needle was inserted transdermally into the VAP for the collection of blood samples and injection of ACTH. Between samplings, catheters/VAPs were flushed with saline and kept patent with 10 U/mL heparin.\nBlood samples (0.3 mL in 15 U/mL heparin) for baseline pharmacokinetic and pharmacodynamic assessments were collected at 0.5 h, 0.25 h and immediately before dosing. […] Blood samples were collected at 0.125, 0.25, 0.5, 0.75 and 1 h after ACTH injection to assess the time course of plasma aldosterone and cortisol stimulation. […] Between the 8 h and 23.5 h collections, the Huber needles were removed and the monkeys were returned to their home cages. All instrumentation was removed after the last sample at 24 h.\nData and statistical analyses were conducted with Microsoft Excel (Version 2007, Microsoft, Redmond, WA, USA). All differences were considered statistically significant at a two-sided P value ≤ 0.05.\nas §9"}, "in vitro": {"test": "in vitro", "conditions": "rat, plasma"}, "healthy male volunteers [10]": {"tested_on": "healthy male volunteers"}, "[11]": {"target": "recombinant rat aldosterone synthase (CYP11B2) (Rattus norvegicus, UniProt P30099)", "sequence (P30099 35-510)": "as the sequence (P30099 35-510) above", "test": "biochemical", "procedure": "Recombinant rat CYP11B2 and CYP11B1 enzymes were prepared similarly. All cell lines were maintained in Dulbecco’s modified Eagle’s medium supplemented with 10% fetal bovine serum, 0.5× antibiotic, 800 μg/mL geneticin and 250 μg/mL hygromycin (double-selection medium; all from Invitrogen, Carlsbad, CA, USA).\nHuman CYP11B2 and CYP11B1 assays were performed as described previously [20]. The rat and monkey assays were conducted similarly, using 11-DOC as substrate.\nas §7\nAldosterone concentration was measured using 96-well plates. Each test sample was incubated with 0.02 µCi D-[1,2,6,7-^3H(N)]aldosterone (PerkinElmer, Boston, MA, USA) and 0.2 µg anti-aldosterone antibody (ATCC, Manassas, VA, USA) in phosphate-buffered saline containing 0.1% Triton X-100, 0.1% bovine serum albumin, and 12% glycerol (in a total volume of 200 µL) at room temperature for 1 h. Anti-mouse polyvinyltoluene (PVT) scintillation proximity assay (SPA) beads (50 µL: GE Health Sciences, Piscataway, NJ, USA) were then added to each well and incubated overnight at room temperature prior to counting in a Microbeta plate counter (PerkinElmer). […] The amount of aldosterone, cortisol or corticosterone was calculated by comparison with a standard curve."}, "in vivo": {"test": "in vivo", "conditions": "male, cynomolgus monkey, plasma, po"}, "[12]": {"conditions": "monkey, 15–150 μg/kg", "source_text": "as §10\nCompound doses in the monkey model are quoted as free base equivalents.\nSix monkeys (4.9–8.8 kg) were selected and were divided into two groups of three animals. Experiments were not initiated until after at least 2 weeks of recovery from the catheter/vascular access port (VAP) surgeries. Thirty minutes before the start of the experiment, a Huber needle was inserted transdermally into the VAP for the collection of blood samples and injection of ACTH. Between samplings, catheters/VAPs were flushed with saline and kept patent with 10 U/mL heparin. […]\nAll pharmacokinetic parameters were derived from concentration–time data by non-compartmental analyses and were calculated using WinNonlin (Enterprise, Version 5.2; Pharsight Corporation, Palo Alto, CA, USA)."}, "[13]": {"tested_on": "ACTH-stimulated aldosterone and corticosterone synthesis", "test": "animal or person", "conditions": "Rattus norvegicus; for ED50: po"}},
  "note": "Where two headings read alike, the source gives them in different places.",
  "data": [
    {"smiles": "N#Cc1ccc([C@H]2CCc3cncn32)c(F)c1", "note": "[LCI699]", "values": [
      {"measurement": "increase in trough 11-DOC levels from baseline", "setting": "healthy male volunteers [1]; LCI699 3 mg, Day 7", "result": 228, "unit": "%"},
      {"measurement": "increase in PRA compared with baseline", "setting": "healthy male volunteers [1]; LCI699 3 mg, Day 14", "result": 238, "unit": "%"},
      {"measurement": "increase in pre-dose ACTH levels compared with baseline", "setting": "healthy male volunteers [1]; LCI699 10 mg", "result": 193, "unit": "%"},
      {"measurement": "increase in pre-dose plasma 11-deoxycortisol from baseline", "setting": "healthy male volunteers [1]; LCI699 10 mg, Day 6", "result": 508, "unit": "%"},
      {"measurement": "reduction in 24 h urinary cortisol", "setting": "healthy male volunteers [1]; LCI699 10 mg, Day 7, one subject (second subject no change)", "result": "> 70", "unit": "%"},
      {"measurement": "plasma aldosterone following the 10 mg dose", "setting": "healthy male volunteers [1]; LCI699 10 mg, data not shown", "result": "No further reduction"},
      {"measurement": "change in trough 11-DOC levels", "setting": "healthy male volunteers [1]; LCI699 0.5 or 1 mg, Day 7", "result": "no change"},
      {"measurement": "effect on plasma or 24 h urinary cortisol", "setting": "healthy male volunteers [1]; LCI699 0.5–3 mg, Day 1, 7 or 14", "result": "no significant effect"},
      {"measurement": "effect on plasma and urinary aldosterone levels", "setting": "[2]", "result": "effectively reduced"},
      {"measurement": "mean decrease in ambulatory systolic blood pressure", "setting": "[2]", "result": 4, "unit": "mmHg"},
      {"measurement": "IC50", "setting": "[3]", "result": 802, "unit": "nM"},
      {"measurement": "prolongation of median survival", "setting": "[4]; 30 mg/kg/day in drinking water from 24 weeks of age, P = 0.07", "result": 23, "unit": "weeks"},
      {"measurement": "treated rats that died suddenly", "setting": "[4]; LCI699 30 mg/kg/day, n = 7", "result": "two of the seven"},
      {"measurement": "dose above which inhibition of stimulated plasma aldosterone shows an apparent plateau", "setting": "[5]; oral", "result": "above 1 mg/kg"},
      {"measurement": "Maximal reduction in plasma aldosterone from baseline", "setting": "[5]; approximately 2 h after oral dosing", "result": 80, "unit": "%"},
      {"measurement": "subjects with plasma sodium levels at or below 135 mmol/L", "setting": "healthy male volunteers [6]; LCI699 0.5 mg, multiple-dose phase", "result": "two"},
      {"measurement": "subjects with pre-specified markers of hypoaldosteronism (mild hyponatremia, postural tachycardia, decreased body weight), discontinued", "setting": "healthy male volunteers [6]; LCI699 3 mg, multiple-dose", "result": "three"},
      {"measurement": "subjects with plasma sodium levels at or below 135 mmol/L", "setting": "healthy male volunteers [6]; LCI699 3 mg, multiple-dose phase", "result": "four"},
      {"measurement": "tolerability", "setting": "healthy male volunteers [6]; healthy subjects, single doses up to 200 mg, multiple doses", "result": "well tolerated"},
      {"measurement": "adverse events considered severe (abnormal ACTH-stimulation test)", "setting": "healthy male volunteers [6]; multiple-dose phase, LCI699 10 mg", "result": "only one adverse event"},
      {"measurement": "changes in supine systolic or diastolic blood pressure or heart rate compared with placebo", "setting": "healthy male volunteers [6]; single or multiple doses", "result": "no consistent changes"},
      {"measurement": "IC50", "setting": "[7]", "result": "12 ± 1", "unit": "nM"},
      {"measurement": "peak reduction of ACTH-stimulated cortisol levels from baseline", "setting": "[8]; LCI699 0.5 mg, Day 6", "result": 1.8, "unit": "%"},
      {"measurement": "effect on ACTH-stimulated 11-DOC levels", "setting": "[8]; LCI699 0.5 mg, eplerenone 100 mg", "result": "no significant effect"},
      {"measurement": "maximal increase in ACTH-stimulated 11-DOC from baseline", "setting": "[8]; LCI699 1 mg, Day 6", "result": 95, "unit": "%"},
      {"measurement": "peak reduction of ACTH-stimulated cortisol levels from baseline", "setting": "[8]; LCI699 1 mg, Day 6", "result": 11, "unit": "%"},
      {"measurement": "effect on ACTH-stimulated cortisol response", "setting": "[8]; LCI699 1 mg, Day 13", "result": "attenuation of the ACTH-stimulated cortisol response"},
      {"measurement": "maximal increase in ACTH-stimulated 11-DOC from baseline", "setting": "[8]; LCI699 3 mg, Day 6", "result": 407, "unit": "%"},
      {"measurement": "peak increase in ACTH-stimulated 11-deoxycortisol from baseline", "setting": "[8]; LCI699 3 mg, Day 6", "result": 82, "unit": "%"},
      {"measurement": "peak reduction of ACTH-stimulated cortisol levels from baseline", "setting": "[8]; LCI699 3 mg, Day 6", "result": 22, "unit": "%"},
      {"measurement": "increase in ACTH-stimulated 11-DOC levels", "setting": "[8]; LCI699 3 mg, Day 13", "result": 168, "unit": "%"},
      {"measurement": "peak increase in ACTH-stimulated 11-deoxycortisol from baseline", "setting": "[8]; LCI699 3 mg, Day 13", "result": 114, "unit": "%"},
      {"measurement": "time to complete reversal of cortisol suppression after discontinuing", "setting": "[8]; LCI699 10 mg", "result": "4 to 9", "unit": "days"},
      {"measurement": "effect on ACTH-stimulated cortisol", "setting": "[8]; LCI699 10 mg, Days 6 and 10", "result": "further suppressed"},
      {"measurement": "peak inhibition of ACTH-stimulated aldosterone levels from baseline (Day −2)", "setting": "[8]; LCI699 0.5–3 mg, Day 6", "result": "41–64%"},
      {"measurement": "effect on cortisol precursors (ACTH-stimulated)", "setting": "[8]; eplerenone 100 mg and lower doses of LCI699 (0.5, 1 mg), Day 6 or Day 13", "result": "no significant effect"},
      {"measurement": "maximal inhibition of aldosterone production at the upper dose", "setting": "[9]; Ang-II- and ACTH-stimulation models in rats and monkeys", "result": "80–90%"},
      {"measurement": "decrease in ACTH-stimulated plasma aldosterone response compared with vehicle control", "setting": "[9]; monkey, 150 μg/kg oral, 3 h prior to ACTH", "result": "~90", "unit": "%"},
      {"measurement": "inhibition of ACTH-stimulated cortisol synthesis", "setting": "[9]; monkey, 5–150 μg/kg oral", "result": "No significant inhibition"},
      {"measurement": "recovery of plasma aldosterone levels", "setting": "[9]; monkey, 5–150 μg/kg oral", "result": "returned to baseline 24 h after dosing"},
      {"measurement": "fraction unbound", "setting": "in vitro", "result": 0.641},
      {"measurement": "plateau of maximal inhibition of plasma aldosterone", "setting": "healthy male volunteers [10]; at the 10 mg single dose, no further reduction up to 200 mg", "result": "approximately 80%"},
      {"measurement": "increase in 11-deoxycortisol", "setting": "healthy male volunteers [10]; single dose 100 mg", "result": 942, "unit": "%"},
      {"measurement": "increase in 11-deoxycortisol", "setting": "healthy male volunteers [10]; single dose 200 mg", "result": 584, "unit": "%"},
      {"measurement": "decrease in plasma cortisol", "setting": "healthy male volunteers [10]; single dose 200 mg, 24 h post-dose, P = 0.029 vs placebo", "result": 19, "unit": "%"},
      {"measurement": "effect on plasma cortisol", "setting": "healthy male volunteers [10]; single doses 3–100 mg", "result": "did not significantly alter"},
      {"measurement": "reductions in 24-h urinary cortisol", "setting": "healthy male volunteers [10]; single doses of 30, 100 or 200 mg", "result": "34–42%"},
      {"measurement": "IC50", "setting": "[11]", "result": "160 ± 9", "unit": "nM"},
      {"measurement": "Tmax", "setting": "in vivo", "result": "0.9 to 3.5", "unit": "h"},
      {"measurement": "half-life", "setting": "in vivo", "result": "1 to 2", "unit": "h"},
      {"measurement": "dose proportionality of pharmacokinetics", "setting": "[12]", "result": "dose-proportional"},
      {"measurement": "ED50", "setting": "[13]; read-out: ED50 for inhibiting ACTH-stimulated aldosterone", "result": 1.1, "unit": "mg/kg"},
      {"measurement": "ED50", "setting": "[13]; read-out: ED50 for inhibiting ACTH-stimulated corticosterone", "result": 73, "unit": "mg/kg"},
      {"measurement": "EC50", "setting": "[13]; read-out: EC50 for inhibiting ACTH-stimulated aldosterone", "result": 771, "unit": "nM"},
      {"measurement": "EC50", "setting": "[13]; read-out: EC50 for inhibiting ACTH-stimulated corticosterone", "result": 36000, "unit": "nM"}
    ]}
  ]
}
